Target: Sucrose Phosphate Synthase (Zea mays, UniProt P31927)
Conditions: phosphate gradient of the HAC (hydroxyapatite) stage
Method: During purification SPS activity is followed in 2 ways : • a) either by means of a colorimetric test (P.S. Kerr et al., Planta., 1987, 170 : 515-519) called resorcinol test described below. […] In practice, to 45 µl (microliter) of enzymatic preparation 25 µl of a buffered solution containing the two substrates is added (UDPG 70 mM, F6P 28 mM, MgCl2 15 mM, HEPES 25 mM pH 7,5). After incubation at 37°C, reaction is stopped by adding 70 µl of NaOH in solution and heating at 95°C during 10 mn. After cooling, 0,25 ml of a solution 0,1 % resorcinol in ethanol 95 % is added, then 0,75 ml of HCl 30 % is added. The OD 520 mM is read after incubation 8 mn at 80 mn, and cooling. • b) or by means of a coupled enzymatic system (S. Harbron et al., Anal. Biochem. 1980, 107 : 56-59) being composed in the following way : [drawing 3]
The disappearance of the NADH absorption at 340 nm is monitored 1 mole of NAD formed or 1 mole of NADH consumed corresponds to 1 mole of sucrose 6 P formed.
In pratice, in a quartz spectrophotometric tun thermostated at 37°C, the following solution are added. • 540 µl of HEPES buffered 50 mM, MgCl2 10 mM KCl 20 mM pH=7.5, • 250 µl of a mixture of substrates PEP (1,6 mM NaDH 0,6 mM, ATP 4 mM UDPG 112 mM), • 60 µl of an enzyme mixture (LDH 166,7 U/ml PK 333,3 U/ml, NPzK 66,7 U/ml), • 100 µl of F6P 112 mM. […]

Sequence of Sucrose Phosphate Synthase (P31927 whole entry): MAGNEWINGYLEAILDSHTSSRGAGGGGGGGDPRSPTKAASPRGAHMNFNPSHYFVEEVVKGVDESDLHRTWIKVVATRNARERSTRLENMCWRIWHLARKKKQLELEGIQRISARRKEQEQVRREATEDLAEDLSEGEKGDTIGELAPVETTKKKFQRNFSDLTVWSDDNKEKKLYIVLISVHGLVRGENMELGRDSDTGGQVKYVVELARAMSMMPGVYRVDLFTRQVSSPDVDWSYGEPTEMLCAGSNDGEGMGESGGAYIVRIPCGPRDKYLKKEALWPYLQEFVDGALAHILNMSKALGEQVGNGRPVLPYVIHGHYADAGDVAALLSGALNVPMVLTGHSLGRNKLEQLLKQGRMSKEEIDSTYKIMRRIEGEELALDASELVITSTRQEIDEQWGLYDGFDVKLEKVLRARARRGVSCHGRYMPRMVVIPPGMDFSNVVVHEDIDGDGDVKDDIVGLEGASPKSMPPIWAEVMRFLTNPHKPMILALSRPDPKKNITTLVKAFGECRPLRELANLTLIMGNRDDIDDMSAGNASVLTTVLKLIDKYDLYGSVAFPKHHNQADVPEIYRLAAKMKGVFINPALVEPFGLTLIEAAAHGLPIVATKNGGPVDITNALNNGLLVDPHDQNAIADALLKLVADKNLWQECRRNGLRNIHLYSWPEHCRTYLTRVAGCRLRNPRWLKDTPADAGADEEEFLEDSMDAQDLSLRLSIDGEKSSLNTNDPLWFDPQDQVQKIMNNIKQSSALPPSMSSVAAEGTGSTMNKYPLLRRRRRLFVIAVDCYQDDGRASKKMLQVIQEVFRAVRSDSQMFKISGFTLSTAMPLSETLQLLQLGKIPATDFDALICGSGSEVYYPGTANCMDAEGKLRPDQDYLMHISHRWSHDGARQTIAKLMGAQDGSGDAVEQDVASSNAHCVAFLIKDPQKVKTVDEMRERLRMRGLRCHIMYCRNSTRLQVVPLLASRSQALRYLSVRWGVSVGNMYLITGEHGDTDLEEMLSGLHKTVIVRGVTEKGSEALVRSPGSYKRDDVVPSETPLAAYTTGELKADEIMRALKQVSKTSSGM

- inhibition of SPS activity: partially inhibit SPS activity
Substance: phosphate

From patent EP0533849B1 (ROUSSEL UCLAF, priority 1991, dated 1992)
